Test results: patent US20240376138A1, “Crystal Forms, Preparation Method And Application Of Aryl Phosphine Oxide Compound” (Chengdu Di'Ao Jiuhong Pharmaceutical Factory, priority 2021, published 2024)

Experiments:
[1] = target: Ba/F3 cells expressing EGFR-C797S/L858R (Homo sapiens, UniProt P00533, C797S/L858R, cells depend on it); assay: Cell anti-proliferation experiment 1, BaF3 cells expressing EGFR mutation (CellTiter-Glo); format: cell-based; conditions: 3 days, CTG, read-out: EGFR-C797S/L858R IC50
Procedure: (§6) Test purpose: to detect the effect of the test compounds on the proliferation of cell lines containing EGFR mutations in BaF3 cells • 2. Test information: • 2.1. Cell information: Cell lines containing EGFR mutations in BaF3 were from WuXiAppTec: • BaF3-cell lines expressing EGFR mutation • EGFR-T790M/Del19 • EGFR-C797S/Del19 • EGFR-T790M/L858R • EGFR-C797S/L858R • EGFR-C797S/T790M/L858R • EGFR-C797S/T790M/Del19 • EGFR-WT wild-type cell lines • 2.2. Test method • Day 0: Cells were seeded in a plate. • a. An ultraviolet lamp of a biological safety cabinet was turned on and countdown was started for 30 minutes. • b. A medium was preheated in a 37° C. water bath. • c. After the ultraviolet irradiation was finished, the biological safety cabinet was opened. […] The cells were removed from an incubator, blown to a uniform cell suspension in the biological safety cabinet and counted. • e. […] The IC50 of each compound was calculated by computer fitting with XL-Fit analysis software (the IC50 of the compound on the cell activity inhibition could be obtained by reading the concentrations of the corresponding compounds at 500 inhibition rate). Inhibition rate % C (reading value of the control group without drug−reading value of the sample)/reading value of the control group without drug×100. • 3.

[2] = target: T1, BaF3 cells expressing EML-4-ALK-L1196M (Homo sapiens, UniProt Q9UM73, L1196M, cells depend on it); assay: Cell anti-proliferation experiment 3, BaF3 cells with ALK fusion and mutation (CellTiter-Glo); format: cell-based; conditions: 3 days, CTG, read-out: EML-4-ALK-L1196M IC50
T1 construct: fused on or other part: Q9HC35 (Echinoderm microtubule-associated protein-like 4)
T1 sequence (Q9UM73 whole entry L1196M, the tested form may be a part): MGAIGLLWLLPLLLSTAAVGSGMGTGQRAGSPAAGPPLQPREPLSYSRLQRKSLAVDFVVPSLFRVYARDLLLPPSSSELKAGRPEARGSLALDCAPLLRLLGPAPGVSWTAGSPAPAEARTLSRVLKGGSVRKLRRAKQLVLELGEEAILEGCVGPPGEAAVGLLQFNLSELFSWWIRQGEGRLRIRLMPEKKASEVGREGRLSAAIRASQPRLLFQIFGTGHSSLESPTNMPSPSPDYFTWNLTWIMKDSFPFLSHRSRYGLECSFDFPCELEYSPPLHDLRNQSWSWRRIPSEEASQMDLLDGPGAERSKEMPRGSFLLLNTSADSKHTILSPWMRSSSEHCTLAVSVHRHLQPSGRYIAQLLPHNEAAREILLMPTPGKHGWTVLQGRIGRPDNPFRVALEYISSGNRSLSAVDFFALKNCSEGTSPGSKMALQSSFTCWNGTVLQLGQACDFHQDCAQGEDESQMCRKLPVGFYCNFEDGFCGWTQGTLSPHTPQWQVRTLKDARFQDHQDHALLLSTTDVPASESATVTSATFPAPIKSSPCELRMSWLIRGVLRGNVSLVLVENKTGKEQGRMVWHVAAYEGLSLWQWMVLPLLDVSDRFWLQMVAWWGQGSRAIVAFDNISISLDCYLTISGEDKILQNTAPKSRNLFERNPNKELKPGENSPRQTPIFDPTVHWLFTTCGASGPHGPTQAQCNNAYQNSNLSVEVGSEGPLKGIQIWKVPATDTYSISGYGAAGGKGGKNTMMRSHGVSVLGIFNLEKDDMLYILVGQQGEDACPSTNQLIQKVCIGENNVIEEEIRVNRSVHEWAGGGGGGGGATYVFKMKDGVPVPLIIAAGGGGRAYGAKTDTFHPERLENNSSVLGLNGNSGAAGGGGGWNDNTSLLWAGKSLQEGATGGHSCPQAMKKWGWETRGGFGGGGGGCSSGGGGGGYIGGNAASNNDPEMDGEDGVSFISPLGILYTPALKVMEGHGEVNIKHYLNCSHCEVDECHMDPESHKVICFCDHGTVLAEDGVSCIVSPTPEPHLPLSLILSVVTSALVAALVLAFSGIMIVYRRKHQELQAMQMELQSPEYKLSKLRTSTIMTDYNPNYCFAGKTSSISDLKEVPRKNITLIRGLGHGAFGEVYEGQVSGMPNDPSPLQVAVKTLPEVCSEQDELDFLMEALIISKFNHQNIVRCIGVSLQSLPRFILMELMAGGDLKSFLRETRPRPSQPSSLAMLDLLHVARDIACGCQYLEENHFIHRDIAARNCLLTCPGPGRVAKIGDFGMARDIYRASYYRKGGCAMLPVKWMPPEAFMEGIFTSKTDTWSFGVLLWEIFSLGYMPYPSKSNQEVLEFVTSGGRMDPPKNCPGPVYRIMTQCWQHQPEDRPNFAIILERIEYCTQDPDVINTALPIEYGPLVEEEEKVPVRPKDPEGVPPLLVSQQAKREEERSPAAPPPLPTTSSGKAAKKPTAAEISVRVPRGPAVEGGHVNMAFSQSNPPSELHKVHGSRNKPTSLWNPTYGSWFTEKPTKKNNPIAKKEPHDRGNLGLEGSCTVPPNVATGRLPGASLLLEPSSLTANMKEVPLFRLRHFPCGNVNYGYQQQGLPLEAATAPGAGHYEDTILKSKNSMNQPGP
Excerpt: (§1) • 1. […] Test information: • 2.1. Cell information: Cell lines containing ALK mutations in BaF3 were from WuXiAppTec: • Ba/F3-cell lines expressing ALK gene fusion and mutation • Ba/F3-EML-4-ALK-WT • Ba/F3-EML-4-ALK-L 1196M • 2.2.
(§2) Test results: The IC50 values of the compound DA and the control compound against BaF3 cells expressing EML-4-ALK-WT and EML-4-ALK-L1196M are shown in Table 22. • 4.

[3] = target: Ba/F3 cells expressing EGFR-WT (Homo sapiens, UniProt P00533); assay: Cell anti-proliferation experiment 1, BaF3 EGFR-WT wild-type cell line (CellTiter-Glo); format: cell-based; conditions: read-out: EGFR-WT IC50
Ba/F3 cells expressing EGFR-WT, sequence (P00533 whole entry, stated change not applied): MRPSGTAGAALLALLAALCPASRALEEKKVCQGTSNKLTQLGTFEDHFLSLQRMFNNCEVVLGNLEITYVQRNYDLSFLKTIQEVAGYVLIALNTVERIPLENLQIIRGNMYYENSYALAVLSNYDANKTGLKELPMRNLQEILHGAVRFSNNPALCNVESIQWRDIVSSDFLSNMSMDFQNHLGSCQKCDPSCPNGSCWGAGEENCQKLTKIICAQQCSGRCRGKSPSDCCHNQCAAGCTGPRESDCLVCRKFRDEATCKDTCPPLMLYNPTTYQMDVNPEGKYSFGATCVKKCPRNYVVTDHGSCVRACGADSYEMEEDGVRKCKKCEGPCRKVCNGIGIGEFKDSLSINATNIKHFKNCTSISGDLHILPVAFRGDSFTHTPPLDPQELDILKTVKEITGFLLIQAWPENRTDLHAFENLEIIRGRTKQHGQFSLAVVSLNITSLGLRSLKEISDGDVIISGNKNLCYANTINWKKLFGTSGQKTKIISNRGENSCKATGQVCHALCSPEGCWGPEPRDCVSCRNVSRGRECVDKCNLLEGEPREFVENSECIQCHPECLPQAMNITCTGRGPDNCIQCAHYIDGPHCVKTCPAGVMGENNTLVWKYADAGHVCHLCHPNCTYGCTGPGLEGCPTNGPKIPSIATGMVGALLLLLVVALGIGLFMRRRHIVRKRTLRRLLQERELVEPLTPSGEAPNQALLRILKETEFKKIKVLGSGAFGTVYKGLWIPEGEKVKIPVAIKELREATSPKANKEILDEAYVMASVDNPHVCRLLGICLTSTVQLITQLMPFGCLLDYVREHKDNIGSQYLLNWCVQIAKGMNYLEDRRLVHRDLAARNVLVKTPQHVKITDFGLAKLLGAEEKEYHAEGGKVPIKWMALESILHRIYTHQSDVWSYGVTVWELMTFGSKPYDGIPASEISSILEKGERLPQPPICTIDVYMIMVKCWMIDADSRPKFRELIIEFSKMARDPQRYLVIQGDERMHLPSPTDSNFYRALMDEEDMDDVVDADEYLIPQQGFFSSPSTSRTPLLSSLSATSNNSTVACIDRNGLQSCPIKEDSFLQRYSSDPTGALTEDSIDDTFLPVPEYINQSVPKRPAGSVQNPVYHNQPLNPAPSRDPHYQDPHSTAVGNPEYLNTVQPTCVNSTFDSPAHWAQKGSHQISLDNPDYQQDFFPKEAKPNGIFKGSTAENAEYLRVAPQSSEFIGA
Procedure: (§7) Test purpose: to detect the effect of the test compounds on the proliferation of cell lines containing EGFR mutations in BaF3 cells • 2. […] Cell information: Cell lines containing EGFR mutations in BaF3 were from WuXiAppTec: • BaF3-cell lines expressing EGFR mutation • EGFR-T790M/Del19 • EGFR-C797S/Del19 • EGFR-T790M/L858R • EGFR-C797S/L858R • EGFR-C797S/T790M/L858R • EGFR-C797S/T790M/Del19 • EGFR-WT wild-type cell lines • 2.2. Test method • Day 0: Cells were seeded in a plate. • a. An ultraviolet lamp of a biological safety cabinet was turned on and countdown was started for 30 minutes. • b. A medium was preheated in a 37° C. water bath. • c. After the ultraviolet irradiation was finished, the biological safety cabinet was opened. The pre-heated medium, PBS, and the like, were wiped with alcohol and placed in the biological safety cabinet. • d. The cells were removed from an incubator, blown to a uniform cell suspension in the biological safety cabinet and counted. • e. Based on the cell counting results, the cell suspension was adjusted to a density of 3,000 cells per well and 50 microliters per well, and seeded in 384-well plates. • f. The cells after seeding were incubated in a 5% CO2 incubator at 37° C. for 3 hours. • g. Compounds were added to the cell plates using Tecan (liquid workstation). • Day 3: the cell plate added with the compounds and CTG (CellTiter-Glo chemiluminescence cell activity assay reagent) were equilibrated at room temperature, 25 μl of CTG was added to each well, centrifuged at 1,000 rpm for 1 minute, and shaken for 1-2 minutes. And centrifuging for 1 minute at 1,000 rpm again, the cell plates were allowed to settle for 10 minutes to detect a signal value in Envision. The IC50 of each compound was calculated by computer fitting with XL-Fit analysis software (the IC50 of the compound on the cell activity inhibition could be obtained by reading the concentrations of the corresponding compounds at 500 inhibition rate). Inhibition rate % C (reading value of the control group without drug−reading value of the sample)/reading value of the control group without drug×100. • 3.

[4] = target: Ba/F3 cells expressing EGFR-C797S/Del19 (Homo sapiens, UniProt P00533, C797S, cells depend on it, form not given); assay: Cell anti-proliferation experiment 1, BaF3 cells expressing EGFR mutation (CellTiter-Glo); format: cell-based; conditions: 3 days, CTG, read-out: EGFR-C797S-Del19 IC50
[5] = target: Ba/F3 cells expressing EGFR-T790M/Del19 (Homo sapiens, UniProt P00533, T790M, cells depend on it, form not given); assay: as above; format: cell-based; conditions: 3 days, CTG, read-out: EGFR-T790M/Del19 IC50
[6] = target: Ba/F3 cells expressing EGFR-C797S/T790M/Del19 (Homo sapiens, UniProt P00533, T790M/C797S, cells depend on it, form not given); assay: as above; format: cell-based; conditions: read-out: EGFR-C797S/T790M/Del19 IC50
Ba/F3 cells expressing EGFR-C797S/T790M/Del19, sequence (P00533 with tags, fused parts or gaps DEL746-750/T790M/C797S, form open): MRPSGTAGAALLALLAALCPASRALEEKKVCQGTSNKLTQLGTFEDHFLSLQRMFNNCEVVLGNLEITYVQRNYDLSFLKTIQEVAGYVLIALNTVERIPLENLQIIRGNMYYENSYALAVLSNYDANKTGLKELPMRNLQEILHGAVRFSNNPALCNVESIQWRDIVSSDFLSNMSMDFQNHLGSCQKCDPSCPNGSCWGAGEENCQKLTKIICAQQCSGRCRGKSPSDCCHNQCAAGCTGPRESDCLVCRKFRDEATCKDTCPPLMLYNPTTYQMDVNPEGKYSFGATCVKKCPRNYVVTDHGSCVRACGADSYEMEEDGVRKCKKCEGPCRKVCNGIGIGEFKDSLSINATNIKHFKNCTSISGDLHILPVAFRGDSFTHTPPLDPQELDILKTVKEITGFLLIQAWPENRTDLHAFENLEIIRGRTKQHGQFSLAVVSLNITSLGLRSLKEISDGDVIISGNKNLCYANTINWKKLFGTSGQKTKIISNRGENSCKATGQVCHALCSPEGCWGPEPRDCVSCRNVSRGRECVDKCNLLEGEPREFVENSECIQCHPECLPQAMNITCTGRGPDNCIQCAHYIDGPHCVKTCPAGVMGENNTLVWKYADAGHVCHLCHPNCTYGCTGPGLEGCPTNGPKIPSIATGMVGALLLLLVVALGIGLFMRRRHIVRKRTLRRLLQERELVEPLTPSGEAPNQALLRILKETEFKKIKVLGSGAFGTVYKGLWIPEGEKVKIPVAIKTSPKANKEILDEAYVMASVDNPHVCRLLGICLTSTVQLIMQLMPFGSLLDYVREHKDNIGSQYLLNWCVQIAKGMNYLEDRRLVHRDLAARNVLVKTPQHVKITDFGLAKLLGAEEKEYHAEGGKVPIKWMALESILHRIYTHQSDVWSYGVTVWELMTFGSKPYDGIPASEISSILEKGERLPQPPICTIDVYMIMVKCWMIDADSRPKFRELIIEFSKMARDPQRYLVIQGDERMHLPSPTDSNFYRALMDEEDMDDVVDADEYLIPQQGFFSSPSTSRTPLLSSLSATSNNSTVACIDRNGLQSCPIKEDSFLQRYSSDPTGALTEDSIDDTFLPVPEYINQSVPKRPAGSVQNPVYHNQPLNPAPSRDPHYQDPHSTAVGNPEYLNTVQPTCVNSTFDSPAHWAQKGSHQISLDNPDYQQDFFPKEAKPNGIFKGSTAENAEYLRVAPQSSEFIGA

[7] = target: Ba/F3 cells expressing EGFR-T790M/L858R (Homo sapiens, UniProt P00533, T790M/L858R, cells depend on it); assay: as above; format: cell-based; conditions: 3 days, CTG, read-out: EGFR-T790M/L858R IC50
Procedure: as §6

[8] = target: T2, BaF3 cells expressing EML-4-ALK-WT (Homo sapiens, UniProt Q9UM73); assay: Cell anti-proliferation experiment 3, BaF3 cells with ALK fusion (CellTiter-Glo); format: cell-based; conditions: 3 days, CTG, read-out: EML-4-ALK-WT IC50
T2 construct: fused on or other part: Q9HC35 (Echinoderm microtubule-associated protein-like 4)
T2 sequence (Q9UM73 whole entry, change not shown, the tested form may be a part): as the sequence (Q9UM73 whole entry L1196M, the tested form may be a part) above, with M1196L counted along it
Excerpt: as §1, §2

[9] = target: Ba/F3 cells expressing EGFR-C797S/T790M/L858R (Homo sapiens, UniProt P00533, T790M/C797S/L858R, cells depend on it); assay: Cell anti-proliferation experiment 1, BaF3 cells expressing EGFR mutation (CellTiter-Glo); format: cell-based; conditions: read-out: EGFR-C797S/T790M/L858R IC50
Procedure: as §7

[10] = Comparative experiment of hygroscopicity (Chinese Pharmacopoeia 2020); format: physicochemical; conditions: for Hygroscopicity: class by weight gain after 24 h; for Weight gain % after 24 h: hygroscopicity test
Excerpt: The description of hygroscopic characteristics and the definition of hygroscopic weight gain are as follows: • Deliquescence: absorbs sufficient amount of water to form a liquid; • Very hygroscopic: the weight gain by hygroscopy is not less than 15%; • Hygroscopic: the weight gain by hygroscopy is less than 15% but not less than 2%; • Slightly hygroscopic: the weight gain by hygroscopy is less than 2% but not less than 0.2%; and
Not or almost not hygroscopic: the weight gain by hygroscopy is less than 0.2% from hygroscopicity.

[11] = Stability test 3: long-term and accelerated conditions; format: physicochemical; conditions: Long-term (25° C. ± 2° C., 65% RH ± 10% RH)
[12] = High temperature and illumination stability test of crystal forms 1-3; format: physicochemical; conditions: for Traits: Day 10 (Table 18-1)
Excerpt: The stabilities of crystal form 2 and crystal form 3 under high temperature, illumination and long-term conditions were investigated.

[13] = Solubility test; format: physicochemical; conditions: Solution with pH = 6.8, 25° C.±2° C.
[14] = High temperature and illumination stability test of crystal forms 1-3; format: physicochemical; conditions: Illumination (illuminance: 5000Lx), Day 0 (Table 18-1)
[15] = system: PC9 cells expressing EGFR-C797S/T790M/Del19; assay: Cell anti-proliferation experiment 2, PC9 cells (SRB); format: cell-based; conditions: Homo sapiens, PC-9, 72 h, read-out: EGFR-C797S/T790M/Del19 GI50
Procedure: (§3) • 1. […] Test information: • 2.1. Cell information: PC9 cells carried EGFR Del19 mutation, and the rest of mutant cells were constructed from PC9 cells according to the conventional stable cell strain construction method. • PC9-cell lines expressing EGFR mutation • EGFR-Del19 • EGFR-T790M/Del19 • EGFR-C797S/T790M/Del19 • 2.2. Test method:
(§4) The test compounds were diluted by 5 times each time with an appropriate concentration as an initial concentration of the test, and totally diluted into 6 concentration gradients. […] SRB (Sulforhodamine B) detection method was used, and the optical density value of each well was read by a microplate reader at 490 nm wavelength.
(§5) The optical density of the cells at the drug action of 0 was set as a Tz value representing the value of the cells at the time that the drug was added. The optical density value of the cells after the solvent control DMSO acted for 72 hours was set as a C value. The optical density of the cells on which the test compounds acted for 72 hours was set as a Ti value. The response of the cells to the drug was calculated according to a method proposed by the U.S. NIH-NCI (National Institutes of Health-National Institute of Cancer): When Ti is more than or equal to Tz, the value was [(Ti−Tz)/(C−Tz)]×100; and when Ti is less than Tz, the value was [(Ti−Tz)/Tz]×100.

[16] = system: PC9 cells expressing EGFR-T790M/Del19; assay: as above; format: cell-based; conditions: Homo sapiens, PC-9, 72 h, read-out: EGFR-T790M/Del19 GI50
Procedure: as §3, §4, §5

[17] = system: PC9 cells expressing EGFR-Del19; assay: as above; format: cell-based; conditions: Homo sapiens, PC-9, 72 h, read-out: EGFR-Del 19 GI50
Procedure: as §3, §4, §5

[18] = High temperature (50° C.), Day 10
[19] = High temperature (50° C.), Day 30
[20] = Illumination (illuminance: 5000Lx), Day 10
[21] = Illumination (illuminance: 5000Lx)
[22] = Illumination (illuminance: 5000Lx), Day 30

Row | GI50 [2] [nM] | GI50 [3] [nM] | GI50 [4] [nM] | GI50 [5] [nM] | GI50 [6] [nM] | GI50 [8] [nM] | GI50 [9] [nM] | Structure (SMILES) | Hygroscopicity [10] | Weight gain % after 24 h [10] [%] | Traits ([11]; Day 0) | Traits ([11]; Day 30) | purity ([12]; Day 0) | the number of impurities above the reporting limit ([12]; Day 0) | total impurities ([12]; Day 0) | purity [12, 18] | the number of impurities above the reporting limit [12, 18] | total impurities [12, 18] | purity [12, 19] | the number of impurities above the reporting limit [12, 19] | total impurities [12, 19] [%] | other results
1 | 65 | 1600 | 184 | 166 | 180 | 34.1 | 626 | COc1cc(N2CCC(N3CCN(C)CC3)CC2)c(C)cc1Nc1ncc(Cl)c(Nc2cccc(C)c2P(C)(C)=O)n1 [Control compound 1] | – | – | – | – | – | – | – | – | – | – | – | – | – | GI50 [1]: 573 nM; GI50 [7]: 156 nM
2 | – | – | – | – | – | – | – | COc1cc(N2CCC(N3CCN(C)CC3)CC2)c(C)cc1Nc1ncc(Br)c(Nc2ccc(C)cc2P(C)(C)=O)n1 [Crystal form 2, (2-((5-bromo-2-((2-methoxy-5-methyl-4-(4-(4-methylpiperazin-1-yl)piperidin-1-yl)phenyl)amino)pyrimidin-4-yl)amino)-5-methylphenyl)dimethylphosphorus oxide] | Slightly hygroscopic (the weight gain by hygroscopy is less than 2% but not less than 0.2%) | 1.35 | Off-white | Light yellow | purity: 99.37% | limit is 7 total | impurities: 0.63% | 99.20% the | limit is 9 total | impurities: 0.80% | purity: 98.72%; | limit is 13; | 1.28 | total impurities ([12]; Day 0, listed as crystal form 2): 0.63%; purity [12, 20]: 99.01% the; the number of impurities above the reporting limit [12, 20]: limit is 10 total; total impurities [12, 20]: impurities: 0.99%; Traits [12, 21]: light yellow; purity [12, 22]: purity: 98.0%;; the number of impurities above the reporting limit [12, 22]: limit is 14;; total impurities [12, 22]: 2.0%; total impurities ([12]; Illumination (illuminance: 5000Lx), Day 30, listed as crystal form 2): 2.0%; Solubility for 24 h [13]: 1360 µg/mL; Traits [14]: off-white
3 | – | – | – | – | – | – | – | COc1cc(N2CCC(N3CCN(C)CC3)CC2)ccc1Nc1ncc(Cl)c(Nc2ccccc2P(C)(C)=O)n1 [Brigatinib (Brigatinib), Brigatinib] | – | – | – | – | – | – | – | – | – | – | – | – | – | GI50 [15]: 516 nM; GI50 [16]: 256 nM; GI50 [17]: 287 nM
4 | 50.2 | 2340 | 203 | 216 | 192 | 39.4 | 566 | COc1cc(N2CCC(N3CCN(C)CC3)CC2)ccc1Nc1ncc(Cl)c(Nc2ccc(C)cc2P(C)(C)=O)n1 [Control compound 3] | – | – | – | – | – | – | – | – | – | – | – | – | – | –
5 | 47.4 | 1760 | 177 | 172 | 221 | 43.6 | 583 | COc1cc(N2CCC(N3CCN(C)CC3)CC2)c(C)cc1Nc1ncc(Cl)c(Nc2ccccc2P(C)(C)=O)n1 [Control compound 2] | – | – | – | – | – | – | – | – | – | – | – | – | – | –
6 | – | – | – | – | – | – | – | COc1cc(N2CCC(N3CCN(C)CC3)CC2)c(C)cc1Nc1ncc(Br)c(Nc2ccc(C)cc2P(C)(C)=O)n1 [Crystal form 3, (2-((5-bromo-2-((2-methoxy-5-methyl-4-(4-(4-methylpiperazin-1-yl)piperidin-1-yl)phenyl)amino)pyrimidin-4-yl)amino)-5-methylphenyl)dimethylphosphorus oxide] | Slightly hygroscopic (the weight gain by hygroscopy is less than 2% but not less than 0.2%) | 1.49 | Off-white | Light yellow | purity: 99.44%; | limit is 7; | 0.56% | 99.28%; the | limit is 7; total | impurities: 0.72% | 98.89%; the | limit is 10; | 1.11 | total impurities ([12]; Day 0, listed as crystal form 3): 0.56%; purity [12, 20]: purity: 98.83%;; the number of impurities above the reporting limit [12, 20]: limit is 10;; total impurities [12, 20]: 1.17%; Traits [12, 21]: light yellow; purity [12, 22]: purity: 96.95%;; the number of impurities above the reporting limit [12, 22]: limit is 17;; total impurities [12, 22]: 3.05%; total impurities ([12]; Illumination (illuminance: 5000Lx), Day 30, listed as crystal form 3): 3.05%; Solubility for 24 h [13]: 1230 µg/mL; Traits [14]: off-white
